Here are results for five compounds from article PMC10175918 (Communications Biology, 2023).

Each structure is given as a SMILES string. Like-named read-outs stand apart in the source and are kept apart here.

Holding throughout (assay): TGFα-shedding assay-based GPCR screening with chimeric Gα subunit proteins
Holding throughout (format): cell-based

In assay [1] the target is T1, 348 GPCRs (Homo sapiens, UniProt P51685).
T1 construct: expressed in transfected cells; host or cells: HEK293A
To be noted: 10µM, Favipiravir 100μM.

Assay [2] concerns the target T2, 348 GPCRs (Homo sapiens, UniProt P11229).
T2 sequence (P11229 1-460): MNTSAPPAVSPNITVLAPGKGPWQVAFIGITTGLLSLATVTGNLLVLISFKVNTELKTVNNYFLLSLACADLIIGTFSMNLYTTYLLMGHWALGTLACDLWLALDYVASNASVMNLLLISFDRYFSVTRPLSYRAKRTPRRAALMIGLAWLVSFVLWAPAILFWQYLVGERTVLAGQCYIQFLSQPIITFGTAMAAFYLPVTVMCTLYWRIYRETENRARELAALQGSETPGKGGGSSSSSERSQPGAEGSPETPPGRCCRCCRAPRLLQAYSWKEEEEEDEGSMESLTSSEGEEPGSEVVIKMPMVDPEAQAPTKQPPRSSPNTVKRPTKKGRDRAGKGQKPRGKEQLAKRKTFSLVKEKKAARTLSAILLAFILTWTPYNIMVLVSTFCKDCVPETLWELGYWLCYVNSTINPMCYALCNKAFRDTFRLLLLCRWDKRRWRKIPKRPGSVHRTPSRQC

For assay [3], the target named is T3, 348 GPCRs (Homo sapiens, UniProt P04000).
T3 construct: expressed in transfected cells; host or cells: HEK293A
T3 sequence (P04000 1-364): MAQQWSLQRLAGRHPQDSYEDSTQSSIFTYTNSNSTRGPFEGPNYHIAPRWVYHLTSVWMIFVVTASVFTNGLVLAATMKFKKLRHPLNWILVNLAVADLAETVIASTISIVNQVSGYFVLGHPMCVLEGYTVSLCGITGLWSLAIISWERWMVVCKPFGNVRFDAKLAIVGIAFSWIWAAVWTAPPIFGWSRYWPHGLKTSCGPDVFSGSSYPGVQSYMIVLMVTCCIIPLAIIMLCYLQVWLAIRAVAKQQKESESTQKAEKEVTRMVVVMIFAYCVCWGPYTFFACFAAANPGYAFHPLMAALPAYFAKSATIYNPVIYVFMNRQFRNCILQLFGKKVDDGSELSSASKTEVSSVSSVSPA
Conditions: 10µM, Favipiravir 100μM.

Assay [4] has as its target 348 GPCRs (Homo sapiens, UniProt P28566). To be noted: 5-HT1E (5-hydroxytryptamine receptor 1E); 10µM, Favipiravir 100μM.
Assay [5] deals with T4, 348 GPCRs (Homo sapiens, UniProt P32238).
T4 sequence (P32238 1-428): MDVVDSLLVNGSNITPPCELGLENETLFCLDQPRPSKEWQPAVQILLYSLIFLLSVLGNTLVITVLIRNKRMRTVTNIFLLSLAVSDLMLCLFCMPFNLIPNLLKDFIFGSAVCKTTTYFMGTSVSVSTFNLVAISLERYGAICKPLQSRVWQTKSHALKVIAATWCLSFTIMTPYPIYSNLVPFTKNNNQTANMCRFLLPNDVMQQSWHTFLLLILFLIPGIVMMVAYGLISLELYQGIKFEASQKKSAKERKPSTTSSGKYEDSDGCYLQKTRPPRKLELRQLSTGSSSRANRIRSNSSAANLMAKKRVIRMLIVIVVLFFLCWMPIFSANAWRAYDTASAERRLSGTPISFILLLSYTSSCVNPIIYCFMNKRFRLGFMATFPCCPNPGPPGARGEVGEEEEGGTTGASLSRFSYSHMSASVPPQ
To be noted: 10µM, Favipiravir 100μM.

In assay [6] the target is T5, 348 GPCRs (Homo sapiens, UniProt Q15391).
T5 construct: expressed in transfected cells; host or cells: HEK293A
T5 sequence (Q15391 1-338): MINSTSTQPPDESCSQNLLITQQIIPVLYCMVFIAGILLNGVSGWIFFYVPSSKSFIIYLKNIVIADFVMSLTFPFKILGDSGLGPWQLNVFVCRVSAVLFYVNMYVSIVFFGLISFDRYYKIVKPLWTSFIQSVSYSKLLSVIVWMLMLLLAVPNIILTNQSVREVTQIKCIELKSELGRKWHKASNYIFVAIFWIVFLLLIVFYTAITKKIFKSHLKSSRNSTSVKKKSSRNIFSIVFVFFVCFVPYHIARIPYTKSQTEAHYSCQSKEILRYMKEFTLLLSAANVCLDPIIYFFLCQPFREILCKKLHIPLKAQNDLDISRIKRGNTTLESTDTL

The target of assay [7] is T6, 348 GPCRs (Homo sapiens, UniProt Q99788).
T6 construct: expressed in transfected cells; host or cells: HEK293A
T6 sequence (Q99788 1-373): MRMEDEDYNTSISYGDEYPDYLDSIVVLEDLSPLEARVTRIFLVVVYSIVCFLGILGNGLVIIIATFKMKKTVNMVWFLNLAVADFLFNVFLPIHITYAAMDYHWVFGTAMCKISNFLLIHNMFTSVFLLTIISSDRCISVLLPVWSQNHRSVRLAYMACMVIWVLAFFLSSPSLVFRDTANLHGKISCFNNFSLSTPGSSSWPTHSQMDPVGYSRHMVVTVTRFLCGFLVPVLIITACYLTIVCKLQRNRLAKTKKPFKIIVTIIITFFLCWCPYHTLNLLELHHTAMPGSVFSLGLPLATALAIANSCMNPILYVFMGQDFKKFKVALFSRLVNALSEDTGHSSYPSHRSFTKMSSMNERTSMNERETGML
Conditions: GPCR CMKLR1 (chemerin chemokine-like receptor 1).

The target of assay [8] is T7, 348 GPCRs (Homo sapiens, UniProt Q96CH1).
T7 construct: expressed in transfected cells; host or cells: HEK293A
Conditions: 10µM, Favipiravir 100μM.

Setting [9] is: read-out: % GPCR activation compared to TPA, CCR8 (C-C motif chemokine receptor 8).
[10] abbreviates: read-out: % GPCR activation compared to TPA, GPCR M1 (Muscarinic acetylcholine receptor M1).
The mark [11] stands for this setting: read-out: % GPCR activation compared to TPA, OPN1LW (opsin 1 (cone pigments), long-wave-sensitive).
Setting [12] is: read-out: % GPCR activation compared to TPA, CCKAR (cholecystokinin A receptor).
[13] abbreviates: read-out: % GPCR activation compared to TPA, GPCR P2Y14 (purinergic receptor P2Y, G-protein coupled, 14).
Where [14] appears, read: read-out: % GPCR activation compared to TPA, GPR146 (G protein-coupled receptor 146).
The mark [15] stands for this setting: CCR8 (C-C motif chemokine receptor 8), read-out: % GPCR activation compared to TPA.
[16] abbreviates: OPN1LW (opsin 1 (cone pigments), long-wave-sensitive), read-out: % GPCR activation compared to TPA.
Where [17] appears, read: CCKAR (cholecystokinin A receptor), read-out: % GPCR activation compared to TPA.
The mark [18] stands for this setting: GPR146 (G protein-coupled receptor 146), read-out: % GPCR activation compared to TPA.
The mark [19] stands for this setting: GPCR M1 (Muscarinic acetylcholine receptor M1), read-out: % GPCR activation compared to TPA.
Setting [20] is: GPCR P2Y14 (purinergic receptor P2Y, G-protein coupled, 14), read-out: % GPCR activation compared to TPA.

Sequence of 348 GPCRs (Homo sapiens, UniProt P28566) (P28566 whole entry): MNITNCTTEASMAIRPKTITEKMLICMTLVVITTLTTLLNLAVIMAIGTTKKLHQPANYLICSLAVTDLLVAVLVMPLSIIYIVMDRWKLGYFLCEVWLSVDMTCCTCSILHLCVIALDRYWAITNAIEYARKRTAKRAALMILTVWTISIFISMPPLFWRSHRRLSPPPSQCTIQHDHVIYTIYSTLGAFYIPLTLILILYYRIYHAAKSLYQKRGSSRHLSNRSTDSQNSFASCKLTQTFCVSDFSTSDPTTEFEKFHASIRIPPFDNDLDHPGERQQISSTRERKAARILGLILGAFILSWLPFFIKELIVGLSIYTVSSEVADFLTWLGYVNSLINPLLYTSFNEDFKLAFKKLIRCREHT
T1 sequence (P51685 whole entry): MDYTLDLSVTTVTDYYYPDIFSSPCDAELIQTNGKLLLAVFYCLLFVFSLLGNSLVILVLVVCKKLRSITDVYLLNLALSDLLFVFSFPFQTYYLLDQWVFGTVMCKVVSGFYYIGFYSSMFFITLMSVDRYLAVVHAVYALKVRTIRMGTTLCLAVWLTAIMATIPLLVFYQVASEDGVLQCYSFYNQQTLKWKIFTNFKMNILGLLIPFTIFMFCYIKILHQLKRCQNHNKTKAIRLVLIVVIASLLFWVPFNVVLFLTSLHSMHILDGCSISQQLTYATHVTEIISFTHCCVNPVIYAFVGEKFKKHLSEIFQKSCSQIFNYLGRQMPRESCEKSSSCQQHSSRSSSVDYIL
T7 sequence (Q96CH1 whole entry): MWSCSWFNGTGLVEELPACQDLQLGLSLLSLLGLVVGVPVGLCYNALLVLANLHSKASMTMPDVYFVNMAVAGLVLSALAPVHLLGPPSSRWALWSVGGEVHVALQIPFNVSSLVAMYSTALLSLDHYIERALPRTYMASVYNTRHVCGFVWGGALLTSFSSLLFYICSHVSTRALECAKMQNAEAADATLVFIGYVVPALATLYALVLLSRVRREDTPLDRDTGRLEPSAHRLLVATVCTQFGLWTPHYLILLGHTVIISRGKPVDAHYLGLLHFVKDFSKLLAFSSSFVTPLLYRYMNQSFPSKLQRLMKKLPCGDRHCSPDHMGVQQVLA

Take `CC(C)OC(=O)[C@H](C)N[P@](=O)(OC[C@H]1O[C@@H](n2ccc(=O)[nH]c2=O)[C@](C)(F)[C@@H]1O)Oc1ccccc1` [sofosbuvir]: the values for the activation at 10 µM in assay [1] (setting [9]), in assay [2] (setting [10]) and in assay [6] (setting [13]) were -2.89%, -0.631% and 0.966%, respectively. For the same compound, the activation at 100 µM in assay [3] (setting [11]) is -0.65%; in assay [5] (setting [12]) it was -1.34%; in assay [8] (setting [14]) it was -6.46%. For the same compound, the “% GPCR activation compared to TPA” value is -1.207% in assay [4] and -0.9389% in assay [7] (10µM).

`NC(=O)c1nc(F)cnc1O` [favipiravir, 6-fluoro-3-hydroxy-2-pyrazinecarboxamide]: the activation at 10 µM in assay [1] (setting [15]) was -0.669%. For the same compound, the activation at 100 µM in assay [2] (GPCR M1 (Muscarinic acetylcholine receptor M1), 100μM, read-out: % GPCR activation compared to TPA) is 0.788%; in assay [3] (setting [16]) it was 0.263%; in assay [5] (setting [17]), -0.523%; in assay [6] (GPCR P2Y14 (purinergic receptor P2Y, G-protein coupled, 14), 100μM, read-out: % GPCR activation compared to TPA), 5.36%; in assay [8] (setting [18]), 0.0656%. The “% GPCR activation compared to TPA” value in assay [4] is recorded as 0.5554%; in assay [7] (100μM), 2.983%.

In the case of `CCC(CC)COC(=O)[C@H](C)N[P@](=O)(OC[C@H]1O[C@@](C#N)(c2ccc3c(N)ncnn23)[C@H](O)[C@@H]1O)Oc1ccccc1` [remdesivir], the activation at 10 µM in assay [1] (setting [9]) was determined as 0.425%; in assay [2] (setting [10]), 3.01%; in assay [6] (setting [13]) it was 8.52%. For the same compound, the activation at 100 µM in assay [3] (setting [11]) is 0.199%; in assay [5] (setting [12]) it was 1.15%; in assay [8] (setting [14]) it was 1.36%. Also, the results for the “% GPCR activation compared to TPA” value in assay [4] and in assay [7] (10µM) were -0.07183% and -1.376%, respectively.

For the compound `N#C[C@@]1(c2ccc3c(N)ncnn23)O[C@H](CO)[C@@H](O)[C@H]1O` [GS441524], the activation at 10 µM was -5.03% in assay [1] (setting [15]), 0.618% in assay [2] (setting [19]) and 4.97% in assay [6] (setting [20]). Further, the figures for the activation at 100 µM in assay [3] (setting [16]), in assay [5] (setting [17]) and in assay [8] (setting [18]) were -0.985%, -2.84% and 0.00864%, respectively. Further, the “% GPCR activation compared to TPA” value in assay [4] is listed as -1.385%; in assay [7] (10µM), -4.934%.

Consider `CC(C)C(=O)OC[C@H]1O[C@@H](n2ccc(NO)nc2=O)[C@H](O)[C@@H]1O` [molnupiravir], for which the results for the activation at 10 µM in assay [1] (setting [15]), in assay [2] (setting [19]) and in assay [6] (setting [20]) were -2.68%, -0.856% and 0.0147%, respectively. Also, the activation at 100 µM in assay [3] (setting [16]) is 0.884%; in assay [5] (setting [17]), 2.71%; in assay [8] (setting [18]), -4.56%. For the same compound, the “% GPCR activation compared to TPA” value is on record as -0.994% in assay [4] and -0.3127% in assay [7] (10µM).
